15 compounds from ChEMBL document CHEMBL1201862, “PubChem BioAssay data set” (2004) can be followed below.

Molecules are shown by their SMILES. Activity calls are given as the source filed them.

Experiment [1] concerns the target T1, DNA repair protein RAD52 homolog (Homo sapiens, UniProt P43351).
T1 sequence (P43351 whole entry): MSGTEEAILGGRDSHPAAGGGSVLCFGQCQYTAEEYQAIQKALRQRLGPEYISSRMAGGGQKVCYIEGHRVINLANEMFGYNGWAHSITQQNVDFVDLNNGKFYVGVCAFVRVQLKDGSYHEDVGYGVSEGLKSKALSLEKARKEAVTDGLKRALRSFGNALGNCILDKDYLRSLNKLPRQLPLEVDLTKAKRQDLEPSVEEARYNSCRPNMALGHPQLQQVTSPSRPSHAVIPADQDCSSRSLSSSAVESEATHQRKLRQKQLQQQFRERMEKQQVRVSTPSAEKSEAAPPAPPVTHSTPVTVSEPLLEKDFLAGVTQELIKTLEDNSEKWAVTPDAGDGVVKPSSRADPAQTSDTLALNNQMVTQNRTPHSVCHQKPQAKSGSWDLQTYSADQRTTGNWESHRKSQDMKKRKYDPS
It counts as functional, biochemical.

Experiment [2] has as its target T2, DNA repair and recombination protein RAD54-like (Homo sapiens, UniProt Q92698).
T2 sequence (Q92698 whole entry): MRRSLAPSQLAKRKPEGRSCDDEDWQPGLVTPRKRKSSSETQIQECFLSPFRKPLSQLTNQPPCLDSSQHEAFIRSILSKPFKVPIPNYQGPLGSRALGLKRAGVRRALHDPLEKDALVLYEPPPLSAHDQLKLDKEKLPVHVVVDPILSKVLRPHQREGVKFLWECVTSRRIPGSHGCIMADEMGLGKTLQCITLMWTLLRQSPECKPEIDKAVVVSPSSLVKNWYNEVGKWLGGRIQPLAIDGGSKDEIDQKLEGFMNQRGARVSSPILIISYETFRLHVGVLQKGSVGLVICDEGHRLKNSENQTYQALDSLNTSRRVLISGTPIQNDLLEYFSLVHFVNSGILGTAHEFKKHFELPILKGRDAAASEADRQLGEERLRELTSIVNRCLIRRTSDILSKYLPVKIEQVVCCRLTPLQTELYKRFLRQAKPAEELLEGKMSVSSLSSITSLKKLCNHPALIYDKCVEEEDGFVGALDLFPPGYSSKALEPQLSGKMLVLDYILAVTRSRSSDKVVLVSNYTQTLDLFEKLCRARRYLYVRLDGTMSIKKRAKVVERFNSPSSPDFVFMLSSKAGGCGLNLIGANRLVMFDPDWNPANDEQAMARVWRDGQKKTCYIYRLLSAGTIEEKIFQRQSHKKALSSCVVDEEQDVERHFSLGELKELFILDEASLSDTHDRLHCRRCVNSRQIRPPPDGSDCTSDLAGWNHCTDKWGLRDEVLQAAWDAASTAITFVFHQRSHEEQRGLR
In words: inhibitors of human RAD54 branch migration, confirmation, biochemical, fluorescence, cherry-picked samples, dose series (AID 651657). Type of experiment: functional.

Another experiment deals with Beta-galactosidase (Escherichia coli, UniProt Q8VNN2). In words: PubChem AID 485352. Type of experiment: functional.
Beta-galactosidase, sequence (Q8VNN2 whole entry): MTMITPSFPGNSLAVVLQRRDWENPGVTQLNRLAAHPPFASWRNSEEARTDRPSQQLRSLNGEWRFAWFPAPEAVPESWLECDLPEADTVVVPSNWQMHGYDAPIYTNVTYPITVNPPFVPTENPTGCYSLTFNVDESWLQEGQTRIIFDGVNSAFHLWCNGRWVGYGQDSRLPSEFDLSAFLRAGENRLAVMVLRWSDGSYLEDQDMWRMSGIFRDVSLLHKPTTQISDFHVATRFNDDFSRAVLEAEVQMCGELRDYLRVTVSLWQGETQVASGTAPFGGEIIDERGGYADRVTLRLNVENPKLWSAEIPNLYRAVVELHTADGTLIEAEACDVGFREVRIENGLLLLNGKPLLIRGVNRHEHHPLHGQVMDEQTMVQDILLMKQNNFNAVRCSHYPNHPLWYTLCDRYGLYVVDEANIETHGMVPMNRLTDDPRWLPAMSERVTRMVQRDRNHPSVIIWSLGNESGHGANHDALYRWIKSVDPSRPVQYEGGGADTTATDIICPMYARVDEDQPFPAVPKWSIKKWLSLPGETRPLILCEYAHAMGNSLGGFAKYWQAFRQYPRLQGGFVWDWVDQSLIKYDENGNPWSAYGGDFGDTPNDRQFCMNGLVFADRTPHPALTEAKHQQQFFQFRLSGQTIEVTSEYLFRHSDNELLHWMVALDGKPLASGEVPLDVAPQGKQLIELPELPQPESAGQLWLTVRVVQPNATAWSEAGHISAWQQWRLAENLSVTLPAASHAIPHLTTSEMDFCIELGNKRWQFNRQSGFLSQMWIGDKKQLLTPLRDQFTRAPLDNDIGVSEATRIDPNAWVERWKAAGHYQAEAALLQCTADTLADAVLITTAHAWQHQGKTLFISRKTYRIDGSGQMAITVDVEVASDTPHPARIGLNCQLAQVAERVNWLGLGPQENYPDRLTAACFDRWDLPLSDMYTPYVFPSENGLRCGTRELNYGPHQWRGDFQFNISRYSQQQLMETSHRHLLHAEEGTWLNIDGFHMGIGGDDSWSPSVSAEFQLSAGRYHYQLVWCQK
For experiment [3], the target named is T3, Type-1 angiotensin II receptor (Homo sapiens, UniProt P30556).
T3 sequence (P30556 whole entry): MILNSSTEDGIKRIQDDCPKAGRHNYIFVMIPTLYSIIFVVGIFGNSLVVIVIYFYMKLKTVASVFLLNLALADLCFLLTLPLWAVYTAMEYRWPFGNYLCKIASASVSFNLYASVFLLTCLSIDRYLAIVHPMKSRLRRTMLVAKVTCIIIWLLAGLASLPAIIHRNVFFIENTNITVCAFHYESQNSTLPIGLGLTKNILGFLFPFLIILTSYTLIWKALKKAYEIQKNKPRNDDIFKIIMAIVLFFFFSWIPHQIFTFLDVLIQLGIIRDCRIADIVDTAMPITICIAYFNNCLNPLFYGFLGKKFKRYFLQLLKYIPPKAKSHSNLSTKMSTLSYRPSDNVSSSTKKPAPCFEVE
In words: AT1 receptor antagonists, dose response, selectivity assay for APJ receptor antagonist project, cell-based, uHTS hits (AID 463214).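 Also: antagonist potency against angiotensin II stimulated AT1 response.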 Type of experiment: functional.

Experiment [4] deals with T4, Long-chain-fatty-acid--AMP ligase FadD28 (Mycobacterium tuberculosis, UniProt P9WQ59).
T4 sequence (P9WQ59 whole entry): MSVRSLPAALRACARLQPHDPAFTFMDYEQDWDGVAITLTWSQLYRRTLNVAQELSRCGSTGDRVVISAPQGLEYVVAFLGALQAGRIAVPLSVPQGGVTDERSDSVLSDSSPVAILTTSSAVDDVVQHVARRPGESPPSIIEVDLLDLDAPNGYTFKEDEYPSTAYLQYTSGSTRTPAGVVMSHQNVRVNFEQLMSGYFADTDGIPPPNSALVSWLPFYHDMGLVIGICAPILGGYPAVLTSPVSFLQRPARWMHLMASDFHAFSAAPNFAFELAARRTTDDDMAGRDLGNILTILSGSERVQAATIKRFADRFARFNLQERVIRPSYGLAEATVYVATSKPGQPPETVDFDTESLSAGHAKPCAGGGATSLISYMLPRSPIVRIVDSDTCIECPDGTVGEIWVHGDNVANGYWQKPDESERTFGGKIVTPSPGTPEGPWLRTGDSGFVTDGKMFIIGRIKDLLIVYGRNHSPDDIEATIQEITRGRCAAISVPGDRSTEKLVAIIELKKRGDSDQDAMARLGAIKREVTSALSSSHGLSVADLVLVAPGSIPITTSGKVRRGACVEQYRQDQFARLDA
In words: Fluorescence polarization aasay to screen for inhibitors that compete for the binding of FadD28 to a bisubstrate Measured in Biochemical System Using Plate Reader - 2147-01_Inhibitor_Dose_CherryPick_Activity. It counts as functional, Mycobacterium tuberculosis H37Rv.

The next experiment concerns the target T5, Streptokinase A (Streptococcus pyogenes serotype M1, UniProt P10520).
T5 sequence (P10520 whole entry): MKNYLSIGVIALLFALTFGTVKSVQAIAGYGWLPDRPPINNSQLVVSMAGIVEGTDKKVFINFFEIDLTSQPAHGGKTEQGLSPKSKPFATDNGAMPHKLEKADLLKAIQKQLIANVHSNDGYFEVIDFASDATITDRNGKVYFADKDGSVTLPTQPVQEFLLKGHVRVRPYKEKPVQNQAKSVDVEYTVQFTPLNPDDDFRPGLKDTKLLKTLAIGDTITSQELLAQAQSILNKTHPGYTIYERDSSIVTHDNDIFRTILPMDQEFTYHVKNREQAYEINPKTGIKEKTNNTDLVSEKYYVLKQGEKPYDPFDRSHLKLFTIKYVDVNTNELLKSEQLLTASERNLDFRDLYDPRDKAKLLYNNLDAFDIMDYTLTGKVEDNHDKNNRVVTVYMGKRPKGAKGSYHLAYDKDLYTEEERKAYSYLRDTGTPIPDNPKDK
In words: S. pyogenes streptokinase expression inhibitors, potency, dose response, plasminogen activation absorbance, OD405 (AID 1914).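 Also: secreted streptokinase activity via plasminogen activation per viability signal from cell pellet.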 Type of experiment: functional, Streptococcus pyogenes M1 GAS.

The nature of experiment [5]: HEp-2 cell cytotoxicity, dose response, cytotoxicity control for RSV inhibitor project, HTS (AID 2410). Type of experiment: functional. As to conditions: human respiratory syncytial virus.
Experiment [6] deals with Streptococcus sp. 'group A'. The experiment can be described thus: growth inhibition of control SK(-) GAS strain, dose response, counter-screen for streptokinase expression inhibitor project, luminescence, kanamycin, BacTiterGlo, confirmation (AID 1900). It counts as functional, organism-based.
The next experiment has as its system Streptococcus. The experiment can be described thus: Group A Streptococcus viability loss, dose response, counter-screen for streptokinase expression inhibitor project, luminescence, BacTiterGlo (AID 1915).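 Also: potency for reduction of bacterial viability or growth.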 Type of experiment: functional, organism-based.
Experiment [7] concerns the target Dual specificity tyrosine-phosphorylation-regulated kinase 1A (Rattus norvegicus, UniProt Q63470). Type of experiment: biochemical, Homo sapiens.
In the next experiment the target is Steroidogenic factor 1 (Homo sapiens, UniProt Q13285). The experiment can be described thus: Counterscreen for inverse agonists of the liver receptor homolog-1 (LRH-1; NR5A2): Luminescence-based cell-based high throughput dose response assay to identify inverse agonists of the Steroidogenic Factor 1 Nuclear Receptor (SF1; NR5A1). Type of experiment: functional.
Steroidogenic factor 1, sequence (Q13285 whole entry): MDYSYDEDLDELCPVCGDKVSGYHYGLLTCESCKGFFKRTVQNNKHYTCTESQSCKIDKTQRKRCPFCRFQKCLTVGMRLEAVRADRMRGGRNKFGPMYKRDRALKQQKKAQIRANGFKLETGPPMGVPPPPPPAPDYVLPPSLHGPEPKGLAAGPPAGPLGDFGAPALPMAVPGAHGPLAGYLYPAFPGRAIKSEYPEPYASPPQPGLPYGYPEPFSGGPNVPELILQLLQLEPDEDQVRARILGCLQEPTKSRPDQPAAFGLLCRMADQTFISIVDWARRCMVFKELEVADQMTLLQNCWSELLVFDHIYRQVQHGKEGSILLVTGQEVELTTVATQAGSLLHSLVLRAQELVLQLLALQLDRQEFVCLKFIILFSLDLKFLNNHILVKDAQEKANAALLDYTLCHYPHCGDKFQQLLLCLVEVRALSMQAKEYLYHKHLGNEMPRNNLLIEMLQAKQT

Experiment [8] can be described thus: inhibitors of intracellular T. cruzi replication, confirmation, NIH3T3 host cells, beta-gal luminescence (AID 2044).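 Also: intracellular parasites grown in NIH/3T3 mouse fibroblasts as host cells; luminescent beta-galactosidase reporter signal from transgenic T. cruzi replicating inside host cells; inhibitors lower the luminescence signal.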 Type of experiment: functional, cell-based.
A short description of experiment [9]: cytotoxicity toward NIH3T3 fibroblasts, dose response, counter-screen, cell-based, ATP luminescence, mouse fibroblasts (AID 2010).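 Also: cells exposed to compound for about 90 hours before reading.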 It counts as functional.
Experiment [10] concerns the target Nuclear receptor subfamily 5 group A member 2 (Homo sapiens, UniProt O00482). Type of experiment: functional, cell-based.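 Also: HEK293T cells transfected with LRH-1 and a StAR promoter luciferase reporter; potency for inhibitors that lower LRH-1 driven reporter light.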
A short description of experiment [11]: StAR promoter reporter inhibition counter-screen, dose response, counter-screen for LRH-1 inverse agonist project, cell-based, luminescence, luciferase reporter (AID 651969). It counts as functional.
In experiment [12] the target is Heat shock protein HSP 90-alpha (Homo sapiens, UniProt P07900). Type of experiment: functional, organism-based.
The target in a further experiment is Cytochrome P450 2C19 (Homo sapiens, UniProt P33261). The experiment can be described thus: Cytochrome panel assay with activity outcomes. Panel member name: p450-cyp2c19 Compounds with AC50 equal or less than 10 uM are considered active. Type of experiment: functional. The note with it: read-out: AC50.
The target in another experiment is Cytochrome P450 2D6 (Homo sapiens, UniProt P10635).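 Also: CYP2D6 member of a cytochrome P450 panel assay.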
Cytochrome P450 2D6, sequence (P10635 whole entry, the tested form may be a part): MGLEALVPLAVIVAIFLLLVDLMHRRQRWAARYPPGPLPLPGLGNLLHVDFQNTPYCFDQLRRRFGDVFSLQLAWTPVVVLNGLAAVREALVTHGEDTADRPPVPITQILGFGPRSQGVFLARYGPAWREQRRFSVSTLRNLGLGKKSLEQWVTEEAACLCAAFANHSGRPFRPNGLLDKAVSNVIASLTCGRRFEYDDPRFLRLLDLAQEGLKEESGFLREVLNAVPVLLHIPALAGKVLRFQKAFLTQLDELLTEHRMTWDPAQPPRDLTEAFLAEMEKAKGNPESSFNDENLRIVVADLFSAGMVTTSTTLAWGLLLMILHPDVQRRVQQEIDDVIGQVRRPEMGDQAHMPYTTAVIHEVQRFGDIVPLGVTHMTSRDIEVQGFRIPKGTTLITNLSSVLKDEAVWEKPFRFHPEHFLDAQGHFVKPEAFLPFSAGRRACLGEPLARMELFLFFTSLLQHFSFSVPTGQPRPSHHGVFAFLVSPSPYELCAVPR
The target of experiment [13] is T6, Fatty acid synthase (Homo sapiens, UniProt P49327). The experiment can be described thus: FAS thioesterase domain inhibitors, dose response, biochemical, endpoint fluorescence intensity, uHTS hits (AID 624327).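 Also: fluorescence from hydrolysis of an O-methyl fluorescein acyl ester substrate by the enzyme.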 Type of experiment: functional.
T6 sequence (P49327 whole entry, the tested form may be a part): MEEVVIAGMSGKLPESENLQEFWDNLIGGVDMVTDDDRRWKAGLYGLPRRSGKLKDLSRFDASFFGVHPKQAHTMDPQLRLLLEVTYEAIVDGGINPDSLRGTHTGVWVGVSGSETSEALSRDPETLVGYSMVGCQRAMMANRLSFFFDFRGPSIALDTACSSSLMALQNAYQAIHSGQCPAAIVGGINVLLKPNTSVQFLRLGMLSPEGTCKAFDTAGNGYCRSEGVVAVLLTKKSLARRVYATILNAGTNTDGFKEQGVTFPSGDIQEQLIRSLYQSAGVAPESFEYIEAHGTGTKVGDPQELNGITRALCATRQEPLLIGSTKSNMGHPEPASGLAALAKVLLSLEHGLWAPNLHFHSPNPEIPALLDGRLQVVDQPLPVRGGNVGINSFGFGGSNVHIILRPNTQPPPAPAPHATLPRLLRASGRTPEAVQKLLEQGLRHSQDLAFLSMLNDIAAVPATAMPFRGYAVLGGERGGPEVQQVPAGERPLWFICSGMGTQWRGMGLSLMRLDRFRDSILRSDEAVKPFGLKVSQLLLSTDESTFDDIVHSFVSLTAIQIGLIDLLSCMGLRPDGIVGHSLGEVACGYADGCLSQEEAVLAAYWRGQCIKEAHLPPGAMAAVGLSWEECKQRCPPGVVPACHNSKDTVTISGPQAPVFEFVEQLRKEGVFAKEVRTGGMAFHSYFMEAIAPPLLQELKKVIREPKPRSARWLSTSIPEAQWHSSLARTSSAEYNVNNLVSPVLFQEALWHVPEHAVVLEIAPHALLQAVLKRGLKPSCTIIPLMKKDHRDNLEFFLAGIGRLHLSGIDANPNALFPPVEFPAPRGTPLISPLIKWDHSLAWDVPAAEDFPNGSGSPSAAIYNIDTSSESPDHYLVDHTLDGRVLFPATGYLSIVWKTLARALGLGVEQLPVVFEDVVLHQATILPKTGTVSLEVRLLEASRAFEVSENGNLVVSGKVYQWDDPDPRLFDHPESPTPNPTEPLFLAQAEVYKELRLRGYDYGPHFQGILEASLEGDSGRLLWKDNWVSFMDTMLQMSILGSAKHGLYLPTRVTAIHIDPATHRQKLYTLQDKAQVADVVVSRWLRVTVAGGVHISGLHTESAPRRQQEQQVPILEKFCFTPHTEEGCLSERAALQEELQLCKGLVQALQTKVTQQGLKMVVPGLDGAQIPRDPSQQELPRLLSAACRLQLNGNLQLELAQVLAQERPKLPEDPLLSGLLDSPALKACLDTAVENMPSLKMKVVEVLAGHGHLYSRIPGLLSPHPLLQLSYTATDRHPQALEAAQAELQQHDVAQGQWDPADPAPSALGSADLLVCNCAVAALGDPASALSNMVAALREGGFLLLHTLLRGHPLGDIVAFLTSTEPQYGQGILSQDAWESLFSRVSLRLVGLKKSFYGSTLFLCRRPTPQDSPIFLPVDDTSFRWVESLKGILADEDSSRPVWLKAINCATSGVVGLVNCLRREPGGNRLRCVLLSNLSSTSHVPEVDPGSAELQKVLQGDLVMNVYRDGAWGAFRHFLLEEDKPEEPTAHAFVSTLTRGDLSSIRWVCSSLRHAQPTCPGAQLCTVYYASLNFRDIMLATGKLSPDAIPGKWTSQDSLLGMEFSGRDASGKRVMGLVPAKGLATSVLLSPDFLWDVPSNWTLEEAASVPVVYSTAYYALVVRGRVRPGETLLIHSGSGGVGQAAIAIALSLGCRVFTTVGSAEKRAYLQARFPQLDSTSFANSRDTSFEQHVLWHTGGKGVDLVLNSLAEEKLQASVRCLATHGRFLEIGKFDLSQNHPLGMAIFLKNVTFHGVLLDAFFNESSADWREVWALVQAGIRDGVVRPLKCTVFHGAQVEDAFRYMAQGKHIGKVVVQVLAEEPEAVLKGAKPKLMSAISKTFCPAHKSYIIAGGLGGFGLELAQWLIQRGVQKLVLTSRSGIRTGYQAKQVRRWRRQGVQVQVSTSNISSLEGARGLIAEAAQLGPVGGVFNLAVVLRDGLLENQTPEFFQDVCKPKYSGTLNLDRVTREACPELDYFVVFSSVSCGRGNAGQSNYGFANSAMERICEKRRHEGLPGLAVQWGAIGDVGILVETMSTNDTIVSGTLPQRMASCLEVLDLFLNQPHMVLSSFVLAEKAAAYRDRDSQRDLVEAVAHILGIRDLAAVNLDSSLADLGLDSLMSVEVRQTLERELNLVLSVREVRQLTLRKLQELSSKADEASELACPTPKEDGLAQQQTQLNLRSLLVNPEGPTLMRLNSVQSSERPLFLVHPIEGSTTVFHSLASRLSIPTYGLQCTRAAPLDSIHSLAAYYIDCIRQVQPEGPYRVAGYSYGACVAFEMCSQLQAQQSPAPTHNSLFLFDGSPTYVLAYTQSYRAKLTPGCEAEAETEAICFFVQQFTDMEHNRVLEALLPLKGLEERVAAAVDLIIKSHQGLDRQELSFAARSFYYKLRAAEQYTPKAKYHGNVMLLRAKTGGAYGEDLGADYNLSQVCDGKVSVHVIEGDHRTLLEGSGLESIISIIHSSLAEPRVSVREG
Experiment [14] deals with T6, Fatty acid synthase. The experiment can be described thus: FAS thioesterase domain inhibitors, dose response, biochemical, kinetic fluorescence intensity (AID 624326).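 Also: rate of fluorescence rise from hydrolysis of a fluorogenic O-methyl fluorescein ester substrate.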 Type of experiment: functional.
Experiment [15] can be described thus: cytotoxicity in HEK-293T cells, dose response, cytotoxicity control for TCR NF-kB inhibitor project, luminescence, T-cell screen hits (AID 489026).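 Also: cells exposed to compound about 14 hours before the viability readout.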 Type of experiment: functional, cell-based.
Experiment [16] can be described thus: AlphaScreen signal interference compounds, dose response, artefact control for ARNT-TACC3 interaction inhibitor project, biochemical, luminescence, cherry-pick (AID 651705).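 Also: AlphaScreen bead proximity signal that flags compounds interfering with the detection technology; potency reflects signal decrease which marks the compound as an assay artifact.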 Type of experiment: functional.

Nuclear receptor subfamily 5 group A member 2, sequence (O00482 whole entry): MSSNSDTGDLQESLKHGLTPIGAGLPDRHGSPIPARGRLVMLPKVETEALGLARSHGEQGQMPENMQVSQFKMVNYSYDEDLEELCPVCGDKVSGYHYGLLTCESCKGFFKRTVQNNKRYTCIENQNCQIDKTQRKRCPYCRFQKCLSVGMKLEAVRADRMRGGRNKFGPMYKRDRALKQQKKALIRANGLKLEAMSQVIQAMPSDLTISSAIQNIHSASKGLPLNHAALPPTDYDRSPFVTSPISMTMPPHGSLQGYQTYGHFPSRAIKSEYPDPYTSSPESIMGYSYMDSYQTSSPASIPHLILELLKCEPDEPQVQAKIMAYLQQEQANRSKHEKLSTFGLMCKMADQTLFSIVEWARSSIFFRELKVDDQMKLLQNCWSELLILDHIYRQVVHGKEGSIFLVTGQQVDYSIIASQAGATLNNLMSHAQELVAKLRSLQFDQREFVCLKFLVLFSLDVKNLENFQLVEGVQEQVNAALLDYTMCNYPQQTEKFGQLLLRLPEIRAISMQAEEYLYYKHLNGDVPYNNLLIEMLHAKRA

For `Cc1c(C)n(CCN(C)C)c2ccc(C(=O)OCCN(C)C)cc12`, the AC50 was 1.31 µM (active) in experiment [1] and 8.41 µM (active) in [2].
In the case of `CC(C)c1nc(C#N)c(NN)o1`, the EC50 on Beta-galactosidase is > 40 µM (inactive). Further, in [3], the IC50 is recorded as 25.3 µM (not active).
In the case of `COc1ccc2c(c1)C(=NNc1ccc(C(=O)O)cc1)c1cc(OC)ccc1-2`, the AC50 in experiment [4] was 88 µM (active); in experiment [7], 0.02 µM (active). Also, the concentration for a half-maximal effect (EC50) on Streptokinase A was > 150 µM (not active); in [6], 6.28 µM (active); in the experiment with Streptococcus it was 12.4 µM (active). For the same compound, the CC50 in experiment [5] was 13.7 µM (active). Moreover, in the experiment “cells”, the IC50 was 10.8 µM (active).
As to `COc1ccc(NS(=O)(=O)c2ccc(OCC(=O)N3CCN(C)CC3)cc2)cc1Cl`, the results for the IC50 (at Steroidogenic factor 1; in experiment [10]; in experiment [11]) were 5.92 µM (active), 9.48 µM (active) and 35.9 µM (inactive), respectively. For the same compound, the values for the EC50 in [8] and in [9] were 0.524 µM (active) and > 30 µM (not active), respectively.
Take `O=C(/C=C/c1cccc(C(F)(F)F)c1)Nc1cccc(C(F)(F)F)c1`: the concentration for a half-maximal effect (EC50) is > 50 µM (not active) on Streptokinase A, 4.38 µM (active) in experiment [6] and 4.93 µM (active) in the experiment on Streptococcus. In addition, the AC50 in experiment [12] is 4.19 µM (active).
For `Cc1cc(C)c2c(N=NN(C)C)[nH]nc2n1`, the concentration at half-maximal activity (AC50) at Cytochrome P450 2C19 was 39.8 µM (inconclusive); on Cytochrome P450 2D6, 14.1 µM (inconclusive); in experiment [12], 3.96 µM (active).
As to `COc1ccc(NC(=O)CN2C(=O)NC3(CCCC3)C2=O)cc1`, the IC50 (on Steroidogenic factor 1; in experiment [10]; in [11]) was 35.9 µM (inactive) each time.
For the compound `CCC(C(=O)NC1CCCCC1)n1c(SCc2ccccc2F)nc2ccncc21` (stereo not given), in experiment [4], the AC50 was > 100 µM (inactive).
As for `CCN(CC)C1CC(=O)N(c2ccc(Br)cc2)C1=O` (stereo not given), in [12], the AC50 is 4.04 µM (active).
As for `O=C(CN1C(=O)S/C(=C\c2cc(Cl)c(O)c(Cl)c2)C1=O)Nc1ccccc1`, the AC50 in experiment [4] was 3.49 µM (active).
As to `O=C(N/C(=C\c1ccc(Br)cc1)C(=O)N1CCOCC1)c1ccc([N+](=O)[O-])cc1`, the IC50 on Fatty acid synthase [13] was 0.262 µM (active); at Fatty acid synthase [14] it was 0.286 µM (active).
Consider `COc1ccc(OC)c(COC(=O)c2cc([N+](=O)[O-])ccc2N2CCOCC2)c1`, for which the IC50 on Fatty acid synthase [13] was 11.4 µM (active); in [15], > 80 µM (inactive); at Fatty acid synthase [14], 15.4 µM (active).
Turning to `C/C=C/c1ccc([C@@H]2[C@H](CO)N(Cc3ccccn3)[C@H]2CNC(C)=O)cc1`, the AC50 in experiment [16] was 83.2 µM (active).
For the compound `COc1cc(/C=N/NC(N)=S)ccc1OCC(=O)Nc1ccc(C)cc1`, the results for the IC50 (at Steroidogenic factor 1; in experiment [10]; in experiment [11]) were 8.04 µM (active), 35.9 µM (inactive) and 35.9 µM (inactive), respectively.
On to `Cc1cccc2cc(/C=N/Nc3ccc(C(=O)O)cc3)c(Cl)nc12`, for which the IC50 was 27.4 µM (inactive) on Fatty acid synthase [13] and 18.3 µM (active) on Fatty acid synthase [14].
